Reference: patent US8093043B2, “β-TrCP1, β-TrCP2 and RSK1 or RSK2 inhibitors and methods for sensitizing target cells to apoptosis” (New York University, priority 2008, dated 2012)
“Also recorded” adds a separate entry of the source. Non-standard residues stand in square brackets, D forms with d. Residues, ends and D or L forms follow the SMILES beside them. No end group written: not given here. *: point of attachment. pS = N[C@@H](COP(=O)(O)O)C(=O)O; Cbz = O=C(OCc1ccccc1)*

Tests used:
BimEL [1] = assay: BimEL accumulation in MEFs after pharmacological RSK inhibition (immunoblot); assay type: cell-based, mouse; details: MEFs, 0, 1 and 5 μM BI-D1870 for 12 hours, immunoblot for Bim
Method: MEFs were treated with 0, 1 and 5 μM BI-D1870 for 12 hours. Cell extracts were then immunoblotted for the Bim and HSP70 (control) proteins.
Western Blotting (IP-Western). Immuno-blotting was conducted essentially as described in Donzelli et al. (2002), supra. Three pieces of the Whatman paper were wetted in Western transfer buffer (48 mM Tris Base, 39 mM Glycine, 0.0375% SDS, and 20% Methanol in ddH2O), excess of buffer was removed and pieces were placed onto the platinum anode (BIO-RAD semi-dry trans-blot SD). The nitrocellulose was wetted in the same buffer and placed onto the Whatman paper. The gel was wetted in the transfer buffer for 5 to 10 seconds and placed onto the nitrocellulose. Three pieces of Whatman paper were wetted and, removing excess of buffer, placed onto the gel. Air bubbles were removed throughout this procedure. The trans-blot cathode was placed onto the stack. The gel was transferred at a constant voltage between 15 to 25V for 30 minutes.

primary thymocytes = assay: Cell death of primary thymocytes from Bim+/+ or Bim−/− mice (propidium iodide flow cytometry); assay type: cell-based, mouse; details: primary thymocytes (T cells) from Bim+/+ or Bim−/− mice, 10 mM BI-D1870, 0-5 days
Method: Cell death was induced by addition of 10 mM BI-D1870 for 0-5 days in primary thymocytes obtained from Bim+/+ or Bim−/− mice. Cell viability was determined by flow cytometric analysis by staining the cells with propidium iodide. Cell debris was excluded from analysis based on its forward and sideward scatter characteristics. The experiment was performed in triplicate using 3 Bim+/+ and 2 Bim−/− mice for each experiment. Data shown are the means±1 SD.
Cells. HeLa (from ATCC) and U2OS (from ATCC) cells were cultured essentially as described in Donzelli et al. (EMBO J., 2002; 21:4875-84). Cells were grown at 37° C. in a 5% CO2 atmosphere in Dulbecco's modified Eagle's medium (Euroclone) supplemented with 10% bovine calf serum (Hyclone) and 2 mM L-glutamine (Euroclone), or in DMEM containing 5% fetal calf serum (FCS, from GIBCO). HEK293 (from ATCC), Bim−/− MEFs and Bax−/−; Bak−/− immortalized mouse embryo fibroblasts (MEFs) (from Dr. Huang at The Walter and Eliza Hall Institute of Medical Research, Australia; see Bouillet et al., Science, 1999, 286:1735-1738; Lindsten et al., Mol. Cell, 2000, 6:1389-1399) were maintained in Dulbecco's modified Eagle's medium (DMEM) containing 10% fetal bovine serum (FBS, from GIBCO). H1650 and HCC827 cells (both from ATCC) were maintained in RPMI-1640 medium (GIBCO) containing 10% FBS. Primary thymocytes were obtained from 6 week Bim+/+ or Bim−/− mice. […]

BimEL [2] = assay: PMA-induced BimEL degradation in HEK293 cells (immunoblot); assay type: cell-based, human
Source text: siRNA. β-TrCP1/2 siRNA […] (SEQ ID NO:19) (Guardavaccaro et al., In vivo Dev Cell, 2003, 4:799-812; Margottin-Goguet cl al., Dev Cell, 2003; 4:813-26); RSK1 siRNA […] (SEQ ID NO:21) and RSK2 siRNA […] (SEQ ID NO:22) (Anjum et al., Curr Biol., 2005, 15:1762-7; Roux et al., J Biol. Chem., 2007, 282:14056-64). Control oligonucleotide was a dsRNA oligo to LacZ mRNA […] (SEQ ID NO:28). All siRNA oligonucleotides were from Dharmacon Research Inc. (Lafayette, Colo.). Cells were transfected with siRNA duplexes by Oligofectamine (Invitrogen, Carlsbad, Calif.), following manufacturer's instructions. Cells were transfected with the oligos twice (at 24 and 48 hours after plating) using oligofectamine (Invitrogen) for HEK293, HiPerFect (Qiagen) for NSCLC cell lines, or the AMAXA nucleofactor (Amaxa Inc. Gaithersburg, Md.) for CD4+ human T cell blasts at day 5, according to manufacturer's recommendations. 24 or 48 hours after the last transfection, cells were collected and analyzed.
(§1) When βTrCP1/2 is silenced (FIG. 4A) or RSK1/2 is silenced (FIG. 4B), BimEL's degradation (induced with PMA) is inhibited. […] For the experiments shown in FIG. 4A, HEK293 cells were treated with control siRNA (SEQ ID NO:28) or siRNA targeting βTrcp1/2 (SEQ ID NO:19). 48 hours after siRNA treatment cells were treated with PMA or with PMA+MG 132 (last four lanes) for indicated times. Protein extracts were immunoblotted for the indicated proteins.
For the experiments shown in FIG. 4B, HEK293 cells were treated with control siRNA (SEQ ID NO:28) or siRNA targeting RSK 1 (SEQ ID NO:21) and RSK2 (SEQ ID NO:22). 48 hours after siRNA treatment cells were treated with PMA for indicated times. Protein extracts were immunoblotted for the indicated proteins.

BimEL [3] = assay: In vivo phosphorylation of BimEL on Ser93/94/98 (immunoprecipitation, phospho-specific antibody); assay type: cell-based; details: cells serum deprived 24 hours, PMA for 10 minutes
Method: Serines 93, 94 and 98 were also shown to be phosphorylated in vivo following activation of ERK by either serum addition or PMA (FIG. 2C). In this experiment, BimEL from cells treated with PMA as well as from cells released from serum starvation were immunoprecipitated. In the experiments in FIG. 2C, cells were serum deprived (SD) for 24 hours, serum released (SR) for 10 minutes (lane 2) or treated with PMA for 10 minutes (lane 3-5). Whole cell extracts (WCE) were subjected to immunoprecipitation using HA resin (α-HA) followed by immunoblotting for β-TrCP1, and antiHA (for BimEL).

H1650 cells = details: EGFR mutant NSCLC; cited from earlier work
βTrCP = βTrCP knockdown efficiency (Cdc25A accumulation, RT-PCR); assay type: cell-based, human; details: HEK293 cells; accumulation of Cdc25A, confirmed by RT-PCR
Method: FIGS. 8A-E represent quantitative analysis of βTrCP1 mRNA in HEK293, HCC827, H1650 cell lines and CD4+ human T cells treated with an siRNA oligo targeting both βTrCP1 and βTrCP2 mRNAs (SEQ ID NO:19). Representative examples showing knockdown efficiency for βTrCP siRNA by RT-PCR analysis with oligo-dT-primed, reverse-transcribed cDNA derived from total RNA that was prepared from the indicated cells transfected with either control or βTrCP siRNAs. Quantitative PCR was conducted using locus-specific primers: forward […] (SEQ ID NO:29) and reverse […] (SEQ ID NO:30) (n=3, ±SD). For HEK293 cells, knockdown efficiency was additionally analyzed by βTrCP1 immunoprecipitation and subsequent immunoblot analysis (D).
as §1

β-TrCP1 = biological target: T1, β-TrCP1 (Homo sapiens, UniProt Q9Y297); assay: In vitro peptide binding assay with 35S-labeled in vitro translated β-TrCP1; details: autoradiography; Fbxw2 and Fbxw4 as comparison
T1 construct: host or cells: cell-free in vitro transcription/translation in reticulocyte lysate
T1 sequence (Q9Y297 1-605): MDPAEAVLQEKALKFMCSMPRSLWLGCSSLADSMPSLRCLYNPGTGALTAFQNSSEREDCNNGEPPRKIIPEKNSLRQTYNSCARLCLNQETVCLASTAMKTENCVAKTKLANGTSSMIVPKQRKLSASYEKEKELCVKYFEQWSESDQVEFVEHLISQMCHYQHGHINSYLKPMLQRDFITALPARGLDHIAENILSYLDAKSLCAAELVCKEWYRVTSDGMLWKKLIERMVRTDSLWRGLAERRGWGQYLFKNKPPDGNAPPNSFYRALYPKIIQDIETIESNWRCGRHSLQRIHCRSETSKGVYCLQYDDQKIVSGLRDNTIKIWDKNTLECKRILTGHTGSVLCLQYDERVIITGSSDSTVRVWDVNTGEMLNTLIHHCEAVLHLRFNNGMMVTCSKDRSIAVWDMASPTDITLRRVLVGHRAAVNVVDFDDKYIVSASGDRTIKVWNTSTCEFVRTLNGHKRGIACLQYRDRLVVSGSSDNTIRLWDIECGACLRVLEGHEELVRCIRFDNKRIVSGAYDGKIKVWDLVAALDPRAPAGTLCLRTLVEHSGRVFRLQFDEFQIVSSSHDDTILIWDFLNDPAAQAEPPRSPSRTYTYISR
Method: Peptide binding assay. The peptides were coupled to agarose beads using the Aminolink Kit (Pierce, Rockford, Ill.). Coupled BimEL, β-TrCP1/2, RSK1/2, or Cdc25A peptides (10 mg) were incubated with ^35S-methionine-labeled in vitro-translated β-TrCP1/2, FBXW2 or FBXW4, using the TNT-coupled reticulocyte lysate system (Promega, Madison, Wis.) in the presence of 5 μCi of ^35S-labeled methionine (Amersham Biosciences, Piscataway, N.Y.). Agarose beads were washed with RIPA buffer and binding was assayed by SDS-PAGE followed by autoradiography.
In this experiment in vitro binding assays were performed using in, vitro translated β-TrCP1 and a purified BimEL peptide composed of 13 amino-acids containing the degron motif. The in vitro binding assays were performed between ^35S-labeled in vitro transcribed/translated β-Trcp1, Fbxw2 and Fbxw4 and beads-coupled BimEL peptide ^88[…]^100 (SEQ ID NO:24) or BimEL phosphopeptide ^88CLSRSpSpSGYFpSFD^100 (SEQ ID NO:25). Bound proteins were eluted and subjected to electrophoresis and autoradiography.

[4] = siRNAs targeting RSK1 and RSK2 used together, PMA 48 hours after siRNA

CC(C)CCN1c2nc(Nc3cc(F)c(O)c(F)c3)ncc2N(C)C(=O)C1C (stereo not shown) [BI-D1870]
BimEL accumulation (BimEL [1]): induced BimEL accumulation; also recorded: induces an accumulation of BimEL | Bim-dependent cell death / cell viability (primary thymocytes): from wild-type mice, but not from Bim^−/− mice, died; also recorded: induces Bim-dependent cell death

CC(C)C[C@@H](C=O)NC(=O)[C@H](CC(C)C)NC(=O)[C@H](CC(C)C)NC(=O)OCc1ccccc1 [MG132] (Cbz-Leu-Leu-Leu-aldehyde)
effect on PMA-induced BimEL degradation (BimEL [2]; PMA+MG 132): Inhibition of BimEL's degradation

CCCCCCCCCCCCCC(=O)O[C@@H]1[C@@H](C)[C@@]2(O)[C@@H](C=C(CO)C[C@]3(O)C(=O)C(C)=C[C@@H]23)[C@@H]2C(C)(C)[C@]12OC(C)=O [PMA]
phosphorylation of BimEL on Ser93/94/98 (BimEL [3]): rapidly induced

COc1cc2ncnc(Nc3ccc(F)c(Cl)c3)c2cc1OCCCN1CCOCC1 [gefitinib]
sensitivity to gefitinib (H1650 cells): not

AGCGCUGAGAAUGGACAGCAA (listed as RNA, chemistry not given here; listed as Homo sapiens) [SEQ ID NO:22, siRNA for human RSK2]
effect on PMA-induced BimEL degradation (BimEL [2]; [4]): counteracted the effect of PMA on BimEL degradation, stabilizing BimEL

CCCAACAUCAUCACUCUGAAA (listed as RNA, chemistry not given here; listed as Homo sapiens) [SEQ ID NO:21, siRNA for human RSK1]
effect on PMA-induced BimEL degradation (BimEL [2]; [4]): counteracted the effect of PMA on BimEL degradation, stabilizing BimEL

GUGGAAUUUGUGGAACAUC [SEQ ID NO:19]
effect on PMA-induced BimEL degradation (BimEL [2]; siRNA targeting βTrcp1/2, PMA 48 hours after siRNA): counteracted the effect of PMA on BimEL degradation, stabilizing BimEL | βTrCP knockdown (βTrCP): efficient βTrCP knockdown

^88CLSRSpSpSGYFpSFD^100 (CLSRS[pS][pS]GYF[pS]FD; listed as Homo sapiens) [SEQ ID NO:25, BimEL phosphopeptide of 13 amino acids containing the degron motif]
binding of βTrCP1 to beads-coupled BimEL peptide (β-TrCP1): binds specifically
